From patent publication US6140327A, “Morpholino-n-ethyl ester derivative of an indole sPLA2 inhibitor” (Eli Lilly and Company, priority 1999, dated 2000)

Key:
[1] = molecular target: recombinant human secreted phospholipase A2; conditions: cited from earlier work
[2] = molecular target: recombinant human secreted phospholipase A2; conditions: guinea pig lung tissue; sPLA2 10 ug/ml; read-out: Tissue test secreted PLA2 Apparent KB; cited from earlier work
[3] = Monkey Pharmacokinetic Study (bioavailability); type: in vivo; conditions: conclusion compared with other esters of the parent and the 2-methyl homolog, oral administration
Method: Plasma was assayed by HPLC to measure concentrations of the different sPLA2 inhibitors (measured as free acids).
Cmax (maximal plasma concentrations), and AUC values were determined from the mean plasma concentration-time profiles.

SMILES | IC50 ([1]; chromogenic assay, 3-4 tests, read-out: Inhibition of human secreted PLA2 IC50 ± mean deviation (3-4 tests)) [nM] | inhibiting sPLA2 (conclusion in words) ([1]; conclusion of Table I) | Kb [2] [nM] | bioavailability (in words) [3] | bioavailability (in words) ([3]; listed as formula (I))
CCc1c(C(=O)C(N)=O)c2c(OCC(=O)O)cccc2n1Cc1ccccc1 [formula (II), ((3-(2-amino-1,2-dioxoethyl)-2-ethyl-1-(phenylmethyl)-1H-indol-4-yl)oxy)acetic acid] | 9 ± 1.73 | highly active in inhibiting sPLA2 | 88.7 ± 18.2 |  | 
CCc1c(C(=O)C(N)=O)c2c(OCC(=O)OCCN3CCOCC3)cccc2n1Cc1ccccc1 [Compound 1, ((3-(2-amino-1,2-dioxoethyl)-2-ethyl-1-(phenylmethyl)-1H-indol-4-yl)oxy)acetic acid morpholino-N-ethyl ester] |  |  |  | unexpectedly more bioavailable than other esters of the parent sPLA2 inhibitor of formula II and also more bioavailable than the 2-methyl homolog of the parent sPLA2 inhibitor of formula II | highly bioavailable upon oral administration compared to closely related ester type prodrugs
